Laboratory results from US7396905B1, “Calcipressins: endogenous inhibitors of calcineurin, uses and reagents related thereto” (priority 1999, dated 2008).

Tests used:
[1] = system: BHK cells transfected with CnA and CnB; assay: Calcium ionophore-induced apoptosis of BHK cells transfected with CnA/CnB; assay type: cell-based, baby hamster; conditions: ionomycin, low serum
Method: FIG. 7: Cells transfected with CnA/CnB (0.5 μg each) were serum deprived for four hours and stimulated with ionomycin (0.25 μM) for one hour in low serum media alone or containing CsA (800 nM), 6 MeAla-CsA (800 nM), and MeBm2t-CsA (800 nM), FK506 (100 nM).
Calcium signaling plays an important and yet mechanistically vague role in a wide range of cell death, including neuronal cell death in stroke and lymphocyte cell death during positive and negative selection. To test the possibility that calcineurin, a calcium-activated phosphatase, participates in cell death, we asked if cells overexpressing calcineurin would show an enhanced sensitivity to calcium ionophore-induced cell death (Shibasaki and McKeon, 1995). We co-transfected calcineurin A and B subunits into baby hamster kidney (BHK) cells and treated them with calcium ionophore approximately 16 hours later.

[2] = molecular target: T1, purified bovine brain calcineurin (Bos taurus, UniProt P48452+P63099); assay: Phosphorylated RII-peptide calcineurin phosphatase assay; assay type: biochemical; conditions: PKA-phosphorylated RII peptide as substrate; GsT fusion proteins 0-20 nM, 15 minutes; read-out: 50 percent inhibition concentrations (IC50) for calcineurin
T1 construct: 50 nM purified bovine brain calcineurin; from tissue; host or cells: bovine brain
Method: The RII peptide of the cAMP-regulatory subunit of PKA was produced as a fusion protein with GsT and labeled with ^32P-phosphate using protein kinase A followed by glutathione-Sepharose affinity purification (Milan et al., 1994). The radiolabeled RII GsT fusion protein was incubated with 1.5u of purified bovine brain calcineurin (ProMega) and 200 nM calmodulin (Sigma) in the presence of 0-20 nM GsT-Csp1 or GsT-Csp2 for 15 minutes. The reaction was stopped by the addition of an equal volume of 2xSDS sample buffer. After fractionation by SDS-polyacrylamide gel electrophoresis, free phosphate was measured by PhosphorImager analysis.

[3] = system: calcineurin-dependent nuclear import of NF-AT4; assay: Calcineurin-dependent NF-AT4 nuclear import assay in BHK cells; assay type: cell-based, baby hamster; conditions: for inhibition of NF-AT nuclear import driven by constitutively active calcineurin (ΔCnA): co-expressed with NF-AT and constitutively active ΔCnA in BHK cells; for inhibition of NF-AT4 nuclear import stimulated by calcium ionophore: co-expressed with GFP-NF-AT4 in BHK cells
Method: This assay monitors the subcellular location of GFP-tagged NF-AT4, a transcription factor that resides in the cytoplasm of unstimulated BHK cells. Following stimulation of BHK cells with ionomycin, a calcium ionophore, GFP-NF-AT4 translocates to the nucleus with a t1/2 of five minutes. This translocation event is accompanied by a dephosphorylation of NF-AT4 in a process dependent on calcineurin.
Baby hamster kidney cells were grown on sterile glass coverslips in DMEM media with 10% fetal calf serum and transfected using calcium phosphate methods (Heald et al., 1993). […] NF-AT4 expression was based on the vector pcDNA3-GFP-NF-AT4 (Shibasaki et al., 1996). Transfected cells were grown for 18 hours prior to drug treatments. Cells were fixed 30 minutes after ionomycin (0.5 uM) treatment or washout using 3% formaldehyde in PBS for 10 minutes at room temperature.

[4] = Solubility assay upon expression in E. coli; assay type: physicochemical
Text: Calcineurin consists of two subunits (Klee et al., 1998), CnA (60 kDa) and CnB (18 kDa), neither of which is soluble when expressed individually in E. coli. The structure of calcineurin was studied by taking advantage of the high level of calcineurin in the central nervous system to directly isolate it from bovine brain (Griffith et al., 1995). […] It is likely that the insolublility of Csp expression in E. coli is due to the absence of binding proteins such as calcineurin, thereby leaving hydrophobic stretches of amino acids uncomplemented (FIG. 1). As with the calcineurin subunits, it is possible that Csp 1 and Csp2 interact with calcineurin in a manner that will form a properly folded, soluble complex. […] The E. coli host containing the calcineurin expression vector will be transformed with these Csp vectors and selected for kanamycin resistance.
Alternatively the given protein or complex may be obtained in sufficient quantities and quality and crystallization protocols may be attempted. […] The skilled artisan will appreciate that other protein expression systems, such as baculovirus, may also be used.

[5] = system: Csp1 transcripts; assay: Csp1 transcript induction (Northern blot) in Jurkat T cells; assay type: cell-based; conditions: human Jurkat T cells, through eight hours
Method: 16A. Calcium signaling induces Csp 1 expression in synergy with PKC pathways. Csp 1 Northern blot of Jurkat T cells were treated with either calcium ionophore (I), PMA (P) or both (I+P) for the indicated durations. GAPDH transcripts were used as sample loading control.
16B. Calcium-dependent Csp 1 induction requires calcineurin.

[6] = system: calcineurin-dependent NF-AT dephosphorylation; assay: NF-AT4 dephosphorylation (western blot mobility) in BHK cells; assay type: cell-based, baby hamster; conditions: co-expressed with NF-AT4 in BHK cells; calcium ionophore treatment
Method: 3B. […] The transfected cells were either left untreated or treated with 1 μM calcium inonphore for 30 min, and the mobility of NF-AT4 was assessed by western blotting.

[7] = molecular target: T1, purified bovine brain calcineurin; assay: Para-nitrophenyl phosphate (pNPP) hydrolysis assay; assay type: biochemical; conditions: 60 mM pNPP, 50 nM calcineurin, 0-100 nM GsT fusion protein
Method: To determine whether the calcipressins; inhibit calcineurin in a manner similar to the immunosuppressants, we assayed pNPP hydrolysis by calcineurin-calcipressin complexes.
Reactions were performed for 30 min at 30 degrees, and stopped by the addition of 950 uL of 1M NaOH. The reaction product was measured by absorbance at 405 nm in a Beckman Du 64 spectophotometer.

[8] = system: human calcineurin A subunit; assay: Yeast two-hybrid interaction with calcineurin; assay type: binding
Text: Potential targets of calcineurin, which is involved in neuronal calcium signaling, were identified using two hybrid screens of a murine hippocampal cDNA library as the prey and using calcineurin as a bait.
The calcineurin bait vector was constructed by cloning the human calcineurin A subunit (ΔCnAD130N; Zhu and McKeon, 1999) into pBRIDGE (Clontech) to create a fusion protein with the Gal4 DNA binding domain. The calcineurin regulatory B subunit (CnB) was cloned into the same pBridge vector under a separate, constitutive promoter. To test for interactions between calcineurin and proteins expressed in the hippocampus, the yeast strain CG1945, in which HIS3 expression is controlled by the Gal1 upstream activating sequence (UAS), was transfected with both the pBRIDGE vector as well as vector DNA from the murine hippocampal cDNA library. Cells were selected for growth on SD media lacking leucine, tryptophan, methionine, and histidine (-LWMH) containing 25 mM 3-aminotriazole, an inhibitor of alternative histidine biosynthetic pathways (REF). […]

Chain of human calcineurin A subunit (P63098 2-170, further chain): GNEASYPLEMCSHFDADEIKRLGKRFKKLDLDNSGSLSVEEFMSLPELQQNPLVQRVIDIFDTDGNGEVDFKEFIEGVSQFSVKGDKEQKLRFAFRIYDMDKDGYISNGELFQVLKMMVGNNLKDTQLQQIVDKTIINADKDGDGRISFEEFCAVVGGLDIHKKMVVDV

Compound: C/C=C/CC(C)(C)[C@@H](O)C1C(=O)N[C@@H](CC)C(=O)N(C)CC(=O)N(C)[C@@H](CC(C)C)C(=O)N[C@@H](C(C)C)C(=O)N(C)[C@@H](CC(C)C)C(=O)N[C@@H](C)C(=O)N[C@H](C)C(=O)N(C)[C@@H](CC(C)C)C(=O)N(C)[C@@H](CC(C)C)C(=O)N(C)[C@@H](C(C)C)C(=O)N1C (some centres unmarked) [MeBm2t-CsA]
- effect on calcineurin-induced apoptosis [1]: augment the apoptotic effect of calcineurin to a greater extent than CsA

Compound: Csp1: Calcipressin 1, murine homolog of DSCR1, endogenous inhibitor of calcineurin; amino acid sequence SEQ ID No: 4
- IC50 [2]: 2 nM

Compound: Csp3: Third calcipressin family member, cDNA cloned from activated murine T cells; amino acid sequence SEQ ID No: 24
- inhibition of NF-AT nuclear import driven by constitutively active calcineurin (ΔCnA) [3]: inhibits the calcineurin mediated translocation of NFAT

Compound: Csp1 101-197: Csp1 lacking the N-terminus; C-terminal half of Csp1 (amino acids 101-197)
- inhibition of NF-AT4 nuclear import stimulated by calcium ionophore [3]: sufficient to inhibit the nuclear import of NF-AT4
- fraction of molecule soluble in E. coli ([4]; truncated molecule expressed in E. coli): approximately 70%

Compound: CCCCCCCCCCCCCC(=O)O[C@@H]1[C@@H](C)[C@@]2(O)[C@@H](C=C(CO)C[C@]3(O)C(=O)C(C)=C[C@@H]23)[C@@H]2C(C)(C)[C@]12OC(C)=O [PMA, phorbol 12-myristate 13-acetate]
- effect on Csp1 transcript level [5]: weak yet detectable stimulation of Csp1 transcription

Compound: C[C@H](CCC(=O)O)C[C@H](C)C[C@H](C)C(=O)/C=C(\O)[C@H](C)C[C@H](C)C/C=C/[C@@H](C)[C@@H](O)[C@@H](C)[C@@H](O)C[C@@H]1CC[C@@](C)([C@H]2CC[C@@](C)([C@@H](C)O)O2)O1 [ionomycin]
- effect on Csp1 transcript level [5]: not significantly elevated

Compound: Csp2: Calcipressin 2, murine homolog of ZAKI-4, endogenous inhibitor of calcineurin; amino acid sequence SEQ ID No: 5
- NF-AT4 phosphorylation state [6]: hyperphosphorylated despite calcium ionophore treatment
- inhibition of pNPP hydrolysis by calcineurin [7]: blocked the hydrolysis of pNPP by calcineurin
- inhibition of NF-AT4 nuclear import stimulated by calcium ionophore [3]: profound suppression
- inhibition of NF-AT nuclear import driven by constitutively active calcineurin (ΔCnA) [3]: strong inhibitors of ΔCnA-induced NF-AT nuclear import
- IC50 [2]: 5 nM
- typical yield of total protein in the soluble fraction ([4]; full length molecule expressed in E. coli at 15, 22, or 30° C.): 3%
- binding to calcineurin in two-hybrid yeast strains [8]: specifically bind to the catalytic subunit of calcineurin (CnA)
